Patent publication US20240041970A1, “TRADITIONAL CHINESE HERBAL COMPOSITION FOR TREATING ALLERGIC CONJUNCTIVITIS AND/OR ALLERGIC RHINITIS” (EYE HOSPITAL, CHINA ACADEMY OF CHINESE MEDICAL SCIENCES, priority 2021, published 2024)

Key:
allergic conjunctivitis = assay: Clinical efficacy: ocular symptoms and signs (effective rate); format: in vivo, human; details: 1-week treatment, oral
From the text: (§1) From May 10, 2021 to Aug. 23, 2021, 36 patients diagnosed with allergic conjunctivitis complicated and allergic rhinitis were collected from Eye Hospital, China Academy of Chinese Medical Sciences, and they were divided into 2 groups according to a random number table method with 20 cases in the treatment group and 16 cases in the control group.
(§2) The treatment group was orally administered with the water decoction prepared in Example 1 with one dose a day and for twice a day, and the control group was orally administered with 10 mg of cetirizine capsules once a day.
(§3) 2. Evaluation Indexes: • 1) Ocular and nasal symptoms and signs were standardly divided into 4 grades (0: none, 1: mild: 2: moderate: and 3: severe); • 2) Systemic adverse reactions and local adverse reactions in the eyes and nose were recorded.
Eye itching: (1) none; (2) mild: the patient won't notice eye itching when busy at work, but can feel itching when free, or has intermittent eye itching, but it's not severe enough to need to be scratched with hand; (3) moderate: the patient has obvious eye itching, and can still tolerate this symptom, but has the desire to scratch it with hand; and (4) severe: the patient has very obvious and continuous eye itching and stabbing pain, and cannot tolerate these symptoms, and therefore normal life is affected.
Conjunctival congestion: (1) none; (2) mild: congestion takes place in palpebral conjunctiva and fornix in a reticular form; (3) moderate: congestion takes place in palpebral conjunctiva, fornix and bulbar conjunctiva in a reticular form; and (4) severe: congestion takes place in palpebral conjunctiva in a form of red patches, blood vessels are blurred, and obvious congestion takes place in fornix and bulbar conjunctiva;
Conjunctival edema: (1) none; (2) bulbar conjunctival edema can be seen under a slit lamp examination; (3) moderate; bulbar conjunctival edema can be directly seen under natural light; and (4) severe: bulbar conjunctival edema with vesicular protuberances; […]

allergic rhinitis = assay: Clinical efficacy: nasal symptoms and signs (effective rate); format: in vivo, human; details: 1-week treatment, oral
From the text: as §1, §2, §3
Rhinocnesmus: (1) none; (2) mild and intermittent; (3) moderate: an ant walking sensation that can be tolerated; and (4) severe: an ant walking sensation that cannot be tolerated.
Sneezing (number of consecutive sneezings): (1) none; (2) mild: 3-9; (3) moderate: 10-14; (4) severe: ≥15.
Nose running (number of nose blowings per day): (1) none; (2) mild: =4; (3) moderate: 5-9; (4) severe ≥10.
The effective rate evaluation method is based on standards established in Clinical Development Guidelines for Pharmaceutical Products for Treatment of Allergic Rhinoconjunctivitis published by the European Medicines Agency, Chinese Expert Consensus on Diagnosis and Treatment of Allergic Conjunctivitis by Chinese Journal of Ophthalmology, 2018, and Guidelines for Diagnosis and Treatment of Allergic Rhinitis (Chinese Journal of Otorhinolaryngology Head and Neck Surgery, 2016. Vol. 51), and is divided into 4 grades (0: none; 1: mild; 2: moderate; and 3: severe), and it is considered effective if two symptoms (or signs) are improved by one grade or more, or same symptom (or sign) is improved by two grades or more. ((2) to (1), (3) to (2) or (4) to (3) represents a one-grade improvement, and (3) to (1) represents a two-grade improvement).

`O=C(O)COCCN1CCN(C(c2ccccc2)c2ccc(Cl)cc2)CC1` (stereo not drawn) [cetirizine] was tested, and the “Effective Rate (ocular efficacy)” value (allergic conjunctivitis) was 68.75%, the “Effective (ocular efficacy)” value (allergic conjunctivitis; number of patients) was 11 and the “Ineffective (ocular efficacy)” value (allergic conjunctivitis; number of patients) was 5. For the same compound, the “Effective Rate (nasal efficacy)” value (allergic rhinitis) was 75.0%, the “Effective (nasal efficacy)” value (allergic rhinitis; number of patients) was 12 and the “Ineffective (nasal efficacy)” value (allergic rhinitis; number of patients) was 4.
